Patent US8883502B2, “Expandable cell source of neuronal stem cell populations and methods for obtaining and using them” (The Regents of the University of California, priority 2010, dated 2014)

Tests used:
GSK3β = GSK3β (Homo sapiens, UniProt P49841); conditions: cited from earlier work
GSK3 = GSK3 inhibitor; cited from earlier work
pNSCs = test: pNSC self-renewal, clonogenicity and culture on Matrigel; format: cell-based, human
Procedure: (§1) hESCs (HUES9 and HUES1) at about 20% confluence were treated with 3 μM CHIR99021 (Cellagentech), 2 μM SB431542 (Cellagentech), 0.1 μM Compound E (γ-Secretase Inhibitor XXI, EMD Chemicals Inc.) in neural induction media containing Advanced DMEM/F12:Neurobasal (1:1), 1×N2, 1×B27, 1% Glutmax, 5 μg/mL BSA and 10 ng/mL hLIF (Millipore), for 7 d. The culture was then split 1:3 for the next six passages using Accutase and cultured in neural induction media supplemented with 3 μM CHIR99021 and 2 μM SB431542 on X-ray inactivated MEF feeders or Matrigel-coated plates. After six passages, the cells were split 1:10 regularly. Neural induction of H1 hESCs follows the same protocol, but using 4 μM CHIR99021, 3 μM SB431542, and 0.1 μM compound E in the first 7 d, after which the cells were regularly cultured with neural induction media supplemented with 3 μM CHIR99021 and 2 μM SB431542. During the initial few passages, overnight treatment with the ROCK inhibitor (Y-27632, 5 μM, Cellagentech) was also used to enhance cell survival, but not required in following passages. In the present study, neural induction data were collected under feeder conditions except the FACS analysis of FIG. 6 performed under feeder-free condition. pNSCs were expanded on Matrigel-coated surfaces.
pNSCs can long-term self-renew over serial passages on Matrigel with SBR431542, CHIR, and hLIF. pNSCs generated from HUES9 and H1 hESCs were routinely passaged 1:10 and have been cultured for >30 passages without obviously losing proliferative capacity, which is equivalent to at least 94 population doublings. However, individual omission of hLIF, SB431542, or CHIR from the media compromised pNSCs' long-term self-renewal. Single pNSC is clonogenic on Matrigel in the presence of hLIF/SB431542/CHIR (FIG. 2A). […] Despite their highly proliferative and clonogenic capacity, pNSCs are not tumorigenic in SCID beige mice.

gamma secretase = conditions: read-out: IC50, gamma secretase inhibitor; cited from earlier work
SAPK2/p38 = SAPK2/p38 (Homo sapiens, UniProt Q16539); conditions: inhibitor of CK1 and ALK5; cited from earlier work
Chain of SAPK2/p38 (Q16539 whole entry): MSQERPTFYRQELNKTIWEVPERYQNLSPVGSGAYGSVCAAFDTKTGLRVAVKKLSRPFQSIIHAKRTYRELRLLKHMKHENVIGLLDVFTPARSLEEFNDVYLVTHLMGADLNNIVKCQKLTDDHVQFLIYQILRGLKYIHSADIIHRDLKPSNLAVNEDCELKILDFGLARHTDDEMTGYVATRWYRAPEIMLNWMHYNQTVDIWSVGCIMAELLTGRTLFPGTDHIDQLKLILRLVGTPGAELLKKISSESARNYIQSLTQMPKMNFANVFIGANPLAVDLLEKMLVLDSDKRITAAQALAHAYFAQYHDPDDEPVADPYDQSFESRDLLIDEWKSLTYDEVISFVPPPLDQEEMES

Notch signaling = Notch signaling inhibitor and gamma secretase inhibitor; cited from earlier work
hESCs = test: Neural induction of hESCs (real-time PCR, immunocytochemistry, flow cytometry); format: cell-based, human
Procedure: as §1, with “[…]),” for “CHIR99021 (Cellagentech),”, “([…]),” for “(Cellagentech),”, “Neural induction of H1 hESCs follows the same protocol, but using 4 μM CHIR99021, 3 μM SB431542, and 0.1 μM compound E in the first 7 d, after which the cells were regularly cultured with neural induction media supplemented with 3 μM CHIR99021 and 2 μM SB431542.” left out, “([…])” for “(Y-27632, 5 μM, Cellagentech)”, “surfaces. For immunofluorescence assays, pNSCs were fixed in 4% paraformaldehyde for 10 min. Specifically, 4% paraformaldehyde with 0.15% picric acid was used to fix the neuronal differentiation culture. For immunostaining of GABA antigen, the cells were fixed in 4% paraformaldehyde, 0.15% picric acid and 0.02% Glutaraldehyde. […]” for “surfaces.”

Chain of GSK3β (P49841 whole entry, species assumed): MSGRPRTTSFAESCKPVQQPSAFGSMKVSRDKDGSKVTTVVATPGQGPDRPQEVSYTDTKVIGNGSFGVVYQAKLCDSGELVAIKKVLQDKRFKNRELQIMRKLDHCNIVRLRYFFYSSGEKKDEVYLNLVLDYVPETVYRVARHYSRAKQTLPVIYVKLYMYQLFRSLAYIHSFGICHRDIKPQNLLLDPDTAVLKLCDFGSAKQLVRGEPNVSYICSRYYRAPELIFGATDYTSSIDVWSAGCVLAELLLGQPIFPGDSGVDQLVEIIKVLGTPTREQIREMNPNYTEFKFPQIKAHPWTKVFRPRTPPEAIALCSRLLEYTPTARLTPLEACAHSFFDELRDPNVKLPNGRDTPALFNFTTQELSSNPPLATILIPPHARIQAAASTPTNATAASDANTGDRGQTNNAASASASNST

O=C1NC(=O)C(c2cccc3c2OCO3)N1 (stereo not drawn) [(Z)-5-(2,3-Methylenedioxyphenyl)imidazolidine-2,4-dione]
IC50 (GSK3β): 27 nM

C[C@H](NC(=O)Cc1cc(F)cc(F)c1)C(=O)N[C@H]1N=C(c2ccccc2)c2ccccc2N(C)C1=O [Compound E, (S,S)-2-[2-(3,5-Difluorophenyl)-acetylamino]-N-(1-methyl-2-oxo-5-phenyl-2,3-dihydro-1H-benzo[e][1,4]diazepin-3-yl)-propionamide]
effect on established pNSCs (pNSCs; 48 h treatment): rapidly induced pNSCs to differentiate into Double cortin (DCX)-positive neuronal precursors | colony formation from single pNSC (pNSCs; on Matrigel): no colonies were observed | IC50 (gamma secretase): ~0.3 nM

NC(=O)c1ccc(-c2nc(-c3ccc4c(c3)OCCO4)c(-c3ccccn3)[nH]2)cc1 [D 4476, 4-[4-(2,3-Dihydro-1,4-benzodioxin-6-yl)-5-(2-pyridinyl)-1H-imidazol-2-yl]benzamide]
selectivity over SAPK2/p38 (SAPK2/p38): > 20 fold

CCC[C@H](N[C@H]1CCc2cc(F)cc(F)c2C1)C(=O)Nc1cn(C(C)(C)CNCC(C)(C)C)cn1 [PF-03084014, (S)-2-(((S)-6,8-difluoro-1,2,3,4-tetrahydronaphthalen-2-yl)amino)-N-(1-(2-methyl-1-(neopentylamino)propan-2-yl)-1H-imidazol-4-yl)pentanamide]
IC50 (Notch signaling): 13.3 nM

bFGF: basic fibroblast growth factor, 20 ng/mL in neural induction media
morphology of pNSCs (pNSCs; neural induction media with 20 ng/mL bFGF, 4 d): gained rosette-like structures

B1: Wnt3a: Wnt3a used to replace CHIR in the neural induction protocol (protein, UniProt P56704 19-352, looked up)
Protein Wnt-3a: SYPIWWSLAVGPQYSSLGSQPILCASIPGLVPKQLRFCRNYVEIMPSVAEGIKIGIQECQHQFRGRRWNCTTVHDSLAIFGPVLDKATRESAFVHAIASAGVAFAVTRSCAEGTAAICGCSSRHQGSPGKGWKWGGCSEDIEFGGMVSREFADARENRPDARSAMNRHNNEAGRQAIASHMHLKCKCHGLSGSCEVKTCWWSQPDFRAIGDFLKDKYDSASEMVVEKHRESRGWVETLRPRYTYFKVPTERDLVYYEASPNFCEPNPETGSFGTRDRTCNVSSHGIDGCDLLCCGRGHNARAERRREKCRCVFHWCCYVSCQECTRVYDVHTCK
effect of replacing CHIR in the neural induction protocol (hESCs): induced significant spontaneous differentiation and did not generate a homogenous NSC population
